Data reported in ChEMBL document CHEMBL1201862, “PubChem BioAssay data set” (2004).
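These data come from cells grown in 96-well plates and exposed to compound for 48 hours at five concentrations. Here, GI50 denotes the concentration required for 50% inhibition of growth.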 Active and inactive are the calls of the source. No stated cut-off is given here; in the data, active = GI50 up to about 1.1 µM and inactive = higher.

Assays:
Assay in all cases: DTP human tumour cell line panel, 48 h
Hs-578T = system: Hs-578T
MDA-N = system: MDA-N
DLD-1 = system: DLD-1
DMS-114 = system: DMS-114
DMS-273 = system: DMS-273
HOP-18 = system: HOP-18
LXFL 529 = system: LXFL 529
XF498 = system: XF498

Row | SMILES | GI50 (Hs-578T) | GI50 (MDA-N) | also measured
1 | O=C(Nc1cccc2ccccc12)c1ccccc1 | > 100 µM (inactive) | 77.6 µM (inactive) | 
2 | Cc1cc(O)c(-c2cc(O)c(C)cc2O)cc1O | 25.9 µM (inactive) | 8.34 µM (inactive) | 
3 | Clc1c2nc3ccccc3c-2[nH]c2ccccc12 | 33.7 µM (inactive) | 3.57 µM (inactive) | 
4 | COC(=O)c1c(C)c2c(c(C)c1O)OC(=O)c1c(C)cc(O)c(C=O)c1O2 | 12.5 µM (inactive) | > 100 µM (inactive) | 
5 | Cc1cc(O)cc2c1O[C@@]1(C)CCC3[C@@]4(C)CC[C@H](O)C(C)(C)C4CC[C@@]3(C)[C@H]1C2 (some centres undefined) |  |  | GI50 (DLD-1): 4.06 µM (inactive); GI50 (DMS-114): 5.09 µM (inactive); GI50 (DMS-273): 4.05 µM (inactive); GI50 (HOP-18): 14.7 µM (inactive); GI50 (LXFL 529): 2.85 µM (inactive)
6 | CC(=O)Nc1ccc(-c2nnc(SCC(=O)Nc3cccc(Cl)c3)o2)cc1 |  |  | GI50 (DLD-1): 14.3 µM (inactive); GI50 (DMS-114): 1.36 µM (inactive); GI50 (DMS-273): 17.9 µM (inactive); GI50 (HOP-18): 12.6 µM (inactive); GI50 (LXFL 529): 10.9 µM (inactive)
7 | O=C(CCC(=O)CC(O)(C(F)(F)F)C(F)(F)F)CC(O)(C(F)(F)F)C(F)(F)F | 29.4 µM (inactive) |  | 
8 | OCC(O)C1OC2CC1Nc1ccccc1N2 (centres undefined) | > 100 µM (inactive) |  | 
9 | CN1CCN(C2CC(=O)c3c(Cl)sc(Cl)c32)CC1 (centres undefined) |  | 9.02 µM (inactive) | 
10 | O=C1Nc2cccc(Cl)c2/C1=C\c1c(Cl)nc2sccn12 | 21.9 µM (inactive) | > 100 µM (inactive) | 
11 | c1cc2c(c(-c3c4ccccc4nc4ccccc34)c1)CC1(CC2)OCCO1 |  | > 100 µM (inactive) | 
12 | CCN(CC)CCn1nc(N)c2nc3cc(Cl)ccc3nc21 | > 100 µM (inactive) | 86.5 µM (inactive) | 
13 | O=C1C=CC(=O)c2c1ccc1c3ccccc3n(Cc3ccc([N+](=O)[O-])cc3)c21 |  | > 100 µM (inactive) | 
14 | COc1ccc(CC2OC3(CCCCC3)CC3CCCCN32)cc1 (centres undefined) | 36.7 µM (inactive) | 52.6 µM (inactive) | 
15 | Cc1ccc(Cc2n[nH]c(=O)n2Nc2ccccc2)cc1 | > 100 µM (inactive) | > 100 µM (inactive) | 
16 | CN(C)C(=S)/N=c1\ss/c(=N\C(=S)N(C)C)n1Cc1ccco1 |  |  | GI50 (DLD-1): > 100 µM (inactive); GI50 (DMS-114): > 100 µM (inactive); GI50 (DMS-273): > 100 µM (inactive); GI50 (HOP-18): > 100 µM (inactive); GI50 (LXFL 529): > 100 µM (inactive)
17 | Cc1ccc(-c2cn3c(nc4ccccc43)c(/C=C/c3ccco3)n2)cc1 | 31.9 µM (inactive) | 42.1 µM (inactive) | 
18 | COC(=O)/C=C\C(C#N)(C#N)/N=C/c1cccc(OC)c1 | 18.1 µM (inactive) | 7.03 µM (inactive) | 
19 | CCOP(=O)(OCC)c1ccc(=O)[nH]c1-c1cccs1 | > 100 µM (inactive) | > 100 µM (inactive) | 
20 | CCC(C)OC(=O)C1C2CCC(O2)C1C(=O)O (centres undefined) |  |  | GI50 (DLD-1): > 51.4 µM (inactive); GI50 (DMS-114): > 41.6 µM (inactive); GI50 (DMS-273): > 42.8 µM (inactive); GI50 (HOP-18): > 100 µM (inactive); GI50 (LXFL 529): > 62.7 µM (inactive)
21 | NCCCc1ccc2oc3ccccc3c2c1 | 21.3 µM (inactive) | 15.6 µM (inactive) | 
22 | CC(C)(C)c1cc(OCc2nnc3sc(S)nn23)c(Cl)cc1OCc1nnc2sc(S)nn12 | 77.3 µM (inactive) | 18.9 µM (inactive) | 
23 | Cc1ccc(C2NC(=N)NC3=C2CCOc2c3ccc3ccccc23)cc1 (centres undefined) | 20.5 µM (inactive) |  | 
24 | CC(=O)Oc1ccc2cc(Oc3ccccc3)c(=O)oc2c1 | > 100 µM (inactive) | > 100 µM (inactive) | 
25 | CCc1ccc2c(c1)/C(=C1/Nc3ccccc3/C1=N/O)C(=O)N2 | 4.57 µM (inactive) | 7.53 µM (inactive) | 
26 | CCOC(=O)C1C(c2ccccc2)C2(C#N)C(=N)OC1(C)C2(C#N)C#N (centres undefined) | 29.5 µM (inactive) | 14.7 µM (inactive) | 
27 | Cn1nc2ccc3nccc(N4CCN(CCO)CC4)c3c2n1 | > 100 µM (inactive) | > 100 µM (inactive) | 
28 | COc1c(-c2ccc(O)c(O)c2)oc2c(O)c(O)cc(O)c2c1=O | 49.5 µM (inactive) | 61.5 µM (inactive) | 

Row | SMILES | GI50 (Hs-578T) | GI50 (MDA-N) | also measured
29 | CCCCNS(=O)(=O)c1n[nH]c(=O)[nH]c1=O | > 100 µM (inactive) | > 100 µM (inactive) | 
30 | Cc1ccc(/C=N\NC(=O)c2ccncc2)s1 | > 100 µM (inactive) | > 100 µM (inactive) | 
31 | CC1OC(n2cc(F)c(=O)[nH]c2=O)C(O[Si](C)(C)C(C)(C)C)C1O[Si](C)(C)C(C)(C)C (centres undefined) | 14.3 µM (inactive) | 15.5 µM (inactive) | 
32 | CC1Cc2cc(O)c(O)cc2-c2cc(O)c(O)cc2CC1C (centres undefined) | 9.04 µM (inactive) | 3.07 µM (inactive) | 
33 | Cc1cc(C#N)c[n+](C)c1 | > 100 µM (inactive) | > 100 µM (inactive) | 
34 | Cc1ccc(/C=C/C(=O)c2cccc3ccccc23)cc1 |  |  | GI50 (DLD-1): > 10 µM (inactive); GI50 (DMS-273): 19 µM (inactive); GI50 (LXFL 529): 12.7 µM (inactive); GI50 (XF498): 15.3 µM (inactive)
35 | CCOC(=O)NC(Nc1ccc(S(=O)(=O)Nc2nc(C)cc(C)n2)cc1)(C(=O)OCC)C(F)(F)F (centres undefined) | > 100 µM (inactive) | > 100 µM (inactive) | 
36 | C1=C[C@]2(CCC13OCCO3)COc1ccccc12 |  | 35.6 µM (inactive) | 
37 | Cc1ccc(C2=CC(=O)/C(=C\C(=O)c3ccc(Br)cc3)O2)c(C)c1 | 18.1 µM (inactive) | 6.11 µM (inactive) | 
38 | CN(C)c1ccc(/C=N/c2ccc(-c3nc4ccccc4[nH]3)cc2)cc1 | 63 µM (inactive) | > 100 µM (inactive) | 
39 | O=C1CSC(=S)N1c1ccco1 | > 100 µM (inactive) | 19.8 µM (inactive) | 
40 | COc1cccc(/N=N/C(=N\NC(=O)c2ccc(C)cc2)c2ccc(N(CCC#N)CCC#N)cc2C)c1 | 54.1 µM (inactive) | > 100 µM (inactive) | 
41 | C=C1CC(C)(c2cccc(Nc3nc4ccccc4c4occc34)c2)OC1=O (centres undefined) | 3.25 µM (inactive) | 5.21 µM (inactive) | 
42 | CCCCNc1nc(NC2OCC(OC(C)=O)C(OC(C)=O)C2OC(C)=O)c(N=O)c(=O)n1C (centres undefined) | > 10 µM (inactive) |  | 
43 | N=C(N)SCCON1C(=O)c2ccccc2C1=O | > 100 µM (inactive) | > 100 µM (inactive) | 
44 | Cc1ccc2nc(Cl)c(/C=N/N3C(=O)/C(=C/Cc4ccco4)N=C3c3ccccc3)cc2c1 | 34.2 µM (inactive) | 16.9 µM (inactive) | 
45 | O=[N+]([O-])c1ccc2nc3ccccc3cc2c1 | 3.21 µM (inactive) |  | 
46 | NC(=O)c1ncn2c(=O)n(CCl)nnc12 | > 100 µM (inactive) | > 100 µM (inactive) | 
47 | Clc1ccc(C2=Nc3ccccc3SC(c3ccc(Cl)c(Cl)c3)C2)c(Cl)c1 (centres undefined) |  |  | GI50 (DLD-1): 12.6 µM (inactive); GI50 (DMS-114): 9.89 µM (inactive); GI50 (DMS-273): 11.5 µM (inactive); GI50 (LXFL 529): 15.3 µM (inactive); GI50 (XF498): 12.4 µM (inactive)
48 | CCCN(CCC)C(=O)c1c([N+](=O)[O-])cc(C(F)(F)F)cc1[N+](=O)[O-] |  |  | GI50 (DMS-273): 35.4 µM (inactive); GI50 (LXFL 529): 30.4 µM (inactive)
49 | Cc1ccc(C)c(N2C(=O)C(=O)c3c(C)ccc(C)c32)c1 | 22.4 µM (inactive) |  | 
50 | CCOC(=O)c1[nH]c2nc(SC)nc(NC)c2c1N | > 100 µM (inactive) | > 100 µM (inactive) | 
51 | C[C@@]12C[C@@H](c3ccccc3O1)N1CCSC1=N2 | > 100 µM (inactive) | > 100 µM (inactive) | 
52 | CC(C)C1=CC23CCC4C(C)(C(=O)O)CCCC4(C)C2CC1C1C(=O)N(c2cccc(N4C(=O)C5C6CC7C8(C)CCCC(C)(C(=O)O)C8CCC7(C=C6C(C)C)C5C4=O)c2)C(=O)C13 (centres undefined) | 3.77 µM (inactive) |  | 
53 | c1ccc2c(c1)OC(N1CCCC1)c1cnc(N3CCCC3)nc1-2 (centres undefined) | 30.5 µM (inactive) |  | 
54 | NC1=NC(=O)[C@H](Cc2c[nH]c3ccccc23)N1C(=O)OCc1ccccc1 | 44.9 µM (inactive) | > 100 µM (inactive) | 
55 | C/C(=N\NC(=O)c1ccncc1)c1ccccc1F |  | > 10 µM (inactive) | 
